# US11802111B2, “Cyclobutyl amide monoacylglycerol lipase modulators” (Janssen Pharmaceutica NV, priority 2020, dated 2023)
# Biological target: human MGL from HeLa cells (Homo sapiens (Human), UniProt Q99685)
# Test: MGL in vitro activity assay ([glycerol-1,3-3H]-oleoyl glycerol hydrolysis, activated carbon filtration)
# Format: biochemical
# Settings: 300 nM [Glycerol-1,3-3H]-oleoyl glycerol, one hour
# Procedure, shortened: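 Endogenous human MGL in HeLa cells/homogenates incubated 1 h with test compounds and 300 nM [glycerol-1,3-3H]-oleoyl glycerol. Released 3H-glycerol passing an activated carbon filter counted as activity; screening at 10 μM compound, top IC50 concentration set empirically.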
# Chain of human MGL from HeLa cells (Q99685 whole entry): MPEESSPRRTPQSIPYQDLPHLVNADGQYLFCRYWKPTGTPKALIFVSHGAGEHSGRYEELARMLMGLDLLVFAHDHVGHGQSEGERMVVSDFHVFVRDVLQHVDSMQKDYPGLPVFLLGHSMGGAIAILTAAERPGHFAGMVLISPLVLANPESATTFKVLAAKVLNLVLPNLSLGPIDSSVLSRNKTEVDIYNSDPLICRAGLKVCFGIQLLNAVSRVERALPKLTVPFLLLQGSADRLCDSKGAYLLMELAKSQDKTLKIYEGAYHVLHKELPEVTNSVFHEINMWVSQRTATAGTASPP
row,Compound,IC50
1,"Cc1cc2ccc(CC3CC4(C3)CN(C(=O)[C@H]3C[C@@](C)(O)C3)C4)nc2n1C [Example 292, (6-((1,2-Dimethyl-1H-pyrrolo[2,3-b]pyridin-6-yl)methyl)-2-azaspiro[3.3]heptan-2-yl)((1s,3s)-3-hydroxy-3-methylcyclobutyl)methanone]",19 nM
2,"Cn1cc(F)c2ccc(CC3CC4(C3)CN(C(=O)[C@H]3C[C@@](C)(O)C3)C4)nc21 [Example 293, (6-((3-Fluoro-1-methyl-1H-pyrrolo[2,3-b]pyridin-6-yl)methyl)-2-azaspiro[3.3]heptan-2-yl)((1s,3s)-3-hydroxy-3-methylcyclobutyl)methanone]",10 nM
3,"C[C@]1(O)C[C@@H](C(=O)N2CC3(CC(Cn4c(C(F)(F)F)cc5cccnc54)C3)C2)C1 [Example 294, ((1s,3s)-3-Hydroxy-3-methylcyclobutyl)(6-((2-(trifluoromethyl)-1H-pyrrolo[2,3-b]pyridin-1-yl)methyl)-2-azaspiro[3.3]heptan-2-yl)methanone]",10 nM
4,"C[C@]1(O)C[C@@H](C(=O)N2CC3(CC(Cn4ccc5ccc(C(F)(F)F)nc54)C3)C2)C1 [Example 295, ((1s,3s)-3-Hydroxy-3-methylcyclobutyl)(6-((6-(trifluoromethyl)-1H-pyrrolo[2,3-b]pyridin-1-yl)methyl)-2-azaspiro[3.3]heptan-2-yl)methanone]",20 nM
5,"Cn1cc(C(F)(F)F)c2ccc(CC3CC4(C3)CN(C(=O)[C@H]3C[C@@](C)(O)C3)C4)nc21 [Example 296, ((1s,3s)-3-Hydroxy-3-methylcyclobutyl)(6-((1-methyl-3-(trifluoromethyl)-1H-pyrrolo[2,3-b]pyridin-6-yl)methyl)-2-azaspiro[3.3]heptan-2-yl)methanone]",0.29 nM
6,"C[C@]1(O)C[C@@H](C(=O)N2CC3(CC(Cc4ccc5ccn(CC(F)(F)F)c5n4)C3)C2)C1 [Example 297, ((1s,3s)-3-Hydroxy-3-methylcyclobutyl)(6-((1-(2,2,2-trifluoroethyl)-1H-pyrrolo[2,3-b]pyridin-6-yl)methyl)-2-azaspiro[3.3]heptan-2-yl)methanone]",21 nM
7,"Cn1ccc2cnc(CC3CC4(C3)CN(C(=O)[C@H]3C[C@@](C)(O)C3)C4)cc21 [Example 298, ((1s,3s)-3-Hydroxy-3-methylcyclobutyl)(6-((1-methyl-1H-pyrrolo[3,2-c]pyridin-6-yl)methyl)-2-azaspiro[3.3]heptan-2-yl)methanone]",775 nM
8,"Cn1ncc2cccc(CC3CC4(C3)CN(C(=O)[C@H]3C[C@@](C)(O)C3)C4)c21 [Example 299, ((1s,3s)-3-Hydroxy-3-methylcyclobutyl)(6-((1-methyl-1H-indazol-7-yl)methyl)-2-azaspiro[3.3]heptan-2-yl)methanone]",70 nM
9,"Cc1cc(CC2CC3(C2)CN(C(=O)[C@H]2C[C@@](C)(O)C2)C3)cc2c1cnn2C [Example 300, (6-((1,4-Dimethyl-1H-indazol-6-yl)methyl)-2-azaspiro[3.3]heptan-2-yl)((1s,3s)-3-hydroxy-3-methylcyclobutyl)methanone]",20 nM
10,"Cc1cc2cnn(C)c2cc1CC1CC2(C1)CN(C(=O)[C@H]1C[C@@](C)(O)C1)C2 [Example 301, (6-((1,5-Dimethyl-1H-indazol-6-yl)methyl)-2-azaspiro[3.3]heptan-2-yl)((1s,3s)-3-hydroxy-3-methylcyclobutyl)methanone]",36 nM
11,"Cc1nn(C)c2cc(CC3CC4(C3)CN(C(=O)[C@H]3C[C@@](C)(O)C3)C4)ccc12 [Example 302, (6-((1,3-Dimethyl-1H-indazol-6-yl)methyl)-2-azaspiro[3.3]heptan-2-yl)((1s,3s)-3-hydroxy-3-methylcyclobutyl)methanone]",21 nM
12,"Cn1ncc2c(F)cc(CC3CC4(C3)CN(C(=O)[C@H]3C[C@@](C)(O)C3)C4)cc21 [Example 303, (6-((4-Fluoro-1-methyl-1H-indazol-6-yl)methyl)-2-azaspiro[3.3]heptan-2-yl)((1s,3s)-3-hydroxy-3-methylcyclobutyl)methanone]",29 nM
13,"Cn1ncc2cc(F)c(CC3CC4(C3)CN(C(=O)[C@H]3C[C@@](C)(O)C3)C4)cc21 [Example 304, (6-((5-Fluoro-1-methyl-1H-indazol-6-yl)methyl)-2-azaspiro[3.3]heptan-2-yl)((1s,3s)-3-hydroxy-3-methylcyclobutyl)methanone]",13 nM
14,"Cn1ncc2ccc(CC3CC4(C3)CN(C(=O)[C@H]3C[C@@](C)(O)C3)C4)c(F)c21 [Example 305, (6-((7-Fluoro-1-methyl-1H-indazol-6-yl)methyl)-2-azaspiro[3.3]heptan-2-yl)((1s,3s)-3-hydroxy-3-methylcyclobutyl)methanone]",28 nM

# Now from value to compound:
row,IC50,Compound
1,23 nM,"CC(C)n1ncc2ccc(CC3CC4(C3)CN(C(=O)[C@H]3C[C@@](C)(O)C3)C4)cc21 [Example 306, ((1s,3s)-3-Hydroxy-3-methylcyclobutyl)(6-((1-isopropyl-1H-indazol-6-yl)methyl)-2-azaspiro[3.3]heptan-2-yl)methanone]"
2,431 nM,"C[C@]1(O)C[C@@H](C(=O)N2CC3(CC(Cc4ccc5cnn(CC(F)(F)F)c5c4)C3)C2)C1 [Example 307, ((1s,3s)-3-Hydroxy-3-methylcyclobutyl)(6-((1-(2,2,2-trifluoroethyl)-1H-indazol-6-yl)methyl)-2-azaspiro[3.3]heptan-2-yl)methanone]"
3,117 nM,"CC(C)n1cc2ccc(CC3CC4(C3)CN(C(=O)[C@H]3C[C@@](C)(O)C3)C4)cc2n1 [Example 308, ((1s,3s)-3-Hydroxy-3-methylcyclobutyl)(6-((2-isopropyl-2H-indazol-6-yl)methyl)-2-azaspiro[3.3]heptan-2-yl)methanone]"
4,130 nM,"Cc1nc(OC2CC3(C2)CN(C(=O)[C@H]2C[C@@](C)(O)C2)C3)ccc1C(F)(F)F [Example 309, ((1s,3s)-3-Hydroxy-3-methylcyclobutyl)(6-((6-methyl-5-(trifluoromethyl)pyridin-2-yl)oxy)-2-azaspiro[3.3]heptan-2-yl)methanone]"
5,69 nM,"Cn1ccc2ccc(C(F)(F)C3CC4(C3)CN(C(=O)[C@H]3C[C@@](C)(O)C3)C4)nc21 [Example 317, (6-(Difluoro(1-methyl-1H-pyrrolo[2,3-b]pyridin-6-yl)methyl)-2-azaspiro[3.3]heptan-2-yl)((1s,3s)-3-hydroxy-3-methylcyclobutyl)methanone]"
6,288 nM,"C[C@]1(O)C[C@@H](C(=O)N2CC3(CCC(F)(c4ccccc4)CC3)C2)C1 [Example 340, (7-Fluoro-7-phenyl-2-azaspiro[3.5]nonan-2-yl)((1s,3s)-3-hydroxy-3-methylcyclobutyl)methanone]"
7,101 nM,"Cn1ccc2ccc(C3(F)CCC4(CC3)CN(C(=O)[C@H]3C[C@@](C)(O)C3)C4)nc21 [Example 341, (7-Fluoro-7-(1-methyl-1H-pyrrolo[2,3-b]pyridin-6-yl)-2-azaspiro[3.5]nonan-2-yl)((1s,3s)-3-hydroxy-3-methylcyclobutyl)methanone]"
8,40 nM,"COC1(c2ccccc2)CCC2(CC1)CN(C(=O)[C@H]1C[C@@](C)(O)C1)C2 [Example 342, ((1s,3s)-3-Hydroxy-3-methylcyclobutyl)(7-methoxy-7-phenyl-2-azaspiro[3.5]nonan-2-yl)methanone]"
9,16 nM,"COC1(c2ccccc2C)CCC2(CC1)CN(C(=O)[C@H]1C[C@@](C)(O)C1)C2 [Example 343, ((1s,3s)-3-Hydroxy-3-methylcyclobutyl)(7-methoxy-7-(o-tolyl)-2-azaspiro[3.5]nonan-2-yl)methanone]"
10,0.84 nM,"COC1(c2cc(C)cc(C)c2)CCC2(CC1)CN(C(=O)[C@H]1C[C@@](C)(O)C1)C2 [Example 344, (7-(3,5-Dimethylphenyl)-7-methoxy-2-azaspiro[3.5]nonan-2-yl)((1s,3s)-3-hydroxy-3-methylcyclobutyl)methanone]"
11,187 nM,"Cn1cnc(-c2cccc(C3CCC4(CC3)CN(C(=O)[C@H]3C[C@@](C)(O)C3)C4)c2)c1 [Example 345, ((1s,3s)-3-Hydroxy-3-methylcyclobutyl)(7-(3-(1-methyl-1H-imidazol-4-yl)phenyl)-2-azaspiro[3.5]nonan-2-yl)methanone]"
12,295 nM,"C[C@]1(O)C[C@@H](C(=O)N2CC3(CCC(c4ccc(-n5cccn5)cc4)CC3)C2)C1 [Example 346, (7-(4-(1H-Pyrazol-1-yl)phenyl)-2-azaspiro[3.5]nonan-2-yl)((1s,3s)-3-hydroxy-3-methylcyclobutyl)methanone]"
13,56 nM,"C[C@]1(O)C[C@@H](C(=O)N2CC3(CCC(c4cccc(-n5cccn5)c4)CC3)C2)C1 [Example 347, (7-(3-(1H-Pyrazol-1-yl)phenyl)-2-azaspiro[3.5]nonan-2-yl)((1s,3s)-3-hydroxy-3-methylcyclobutyl)methanone]"
14,22 nM,"Cc1cc(F)cc(C2CCC3(CC2)CN(C(=O)[C@H]2C[C@@](C)(O)C2)C3)c1 [Example 352, (7-(3-Fluoro-5-methylphenyl)-2-azaspiro[3.5]nonan-2-yl)((1s,3s)-3-hydroxy-3-methylcyclobutyl)methanone]"
15,18 nM,"Cc1cc(C2CCC3(CC2)CN(C(=O)[C@H]2C[C@@](C)(O)C2)C3)ccc1F [Example 353, (7-(4-Fluoro-3-methylphenyl)-2-azaspiro[3.5]nonan-2-yl)((1s,3s)-3-hydroxy-3-methylcyclobutyl)methanone]"
16,20 nM,"Cc1ccc(F)c(C2CCC3(CC2)CN(C(=O)[C@H]2C[C@@](C)(O)C2)C3)c1 [Example 354, (7-(2-Fluoro-5-methylphenyl)-2-azaspiro[3.5]nonan-2-yl)((1s,3s)-3-hydroxy-3-methylcyclobutyl)methanone]"
17,39 nM,"Cc1cccc(C2CCC3(CC2)CN(C(=O)[C@H]2C[C@@](C)(O)C2)C3)c1F [Example 355, (7-(2-Fluoro-3-methylphenyl)-2-azaspiro[3.5]nonan-2-yl)((1s,3s)-3-hydroxy-3-methylcyclobutyl)methanone]"
18,15 nM,"Cc1cccc(F)c1C1CCC2(CC1)CN(C(=O)[C@H]1C[C@@](C)(O)C1)C2 [Example 356, (7-(2-Fluoro-6-methylphenyl)-2-azaspiro[3.5]nonan-2-yl)((1s,3s)-3-hydroxy-3-methylcyclobutyl)methanone]"
